Results published in patent US8354414B2, “Substituted bicyclic pyrimidines” (Cephalon, Inc, priority 2006, dated 2013).
pIC50: −log10 of the molar value. Like-named read-outs stand apart in the source and are kept apart here.

Experiments:
CDK5/GST-p25 = molecular target: T1, CDK5/GST-p25 (Homo sapiens, UniProt Q00535); assay: Inhibition of CDK5/GST-p25 kinase activity (ELISA with time-resolved fluorescence readout); type: biochemical
T1 construct: The final construct, encoding for full-length human CDK5; made in house; host or cells: Sf21 insect cells (baculovirus co-infection)
T1 sequence (Q00535 whole entry): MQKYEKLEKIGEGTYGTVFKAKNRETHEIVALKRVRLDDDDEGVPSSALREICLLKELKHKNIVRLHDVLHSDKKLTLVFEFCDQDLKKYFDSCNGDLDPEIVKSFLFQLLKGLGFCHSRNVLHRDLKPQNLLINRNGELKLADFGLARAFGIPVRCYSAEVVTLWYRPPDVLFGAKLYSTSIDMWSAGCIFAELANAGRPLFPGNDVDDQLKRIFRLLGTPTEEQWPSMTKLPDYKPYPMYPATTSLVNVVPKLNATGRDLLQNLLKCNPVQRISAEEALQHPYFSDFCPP
T1 sequence (Q15078 108-307 partner limits assumed): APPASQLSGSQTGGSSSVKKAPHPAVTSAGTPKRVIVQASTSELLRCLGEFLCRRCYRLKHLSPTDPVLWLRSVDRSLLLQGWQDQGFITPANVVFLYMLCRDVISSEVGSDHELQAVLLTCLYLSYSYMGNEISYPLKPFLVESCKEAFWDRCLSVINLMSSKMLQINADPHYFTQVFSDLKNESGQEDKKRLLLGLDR
Protocol: Two recombinant baculoviral constructs were created, one encoding for human CDK5 and the other encoding for human p25 with an amino-terminal glutathione-S-transferase (GST) tag. PCR amplification of full-length CDK5 was performed utilizing human brain cDNA as a template and Pfu Turbo polymerase (Strategene). The PCR product from this reaction was subcloned into the baculoviral expression vector pFASTBAC1 (Gibco/BRL). The final construct, encoding for full-length human CDK5 (base pairs 25-903 of GenBank Accession #NM_004935), is 292 amino acids long with a predicted MW of 33.3 kDa.
For p25, the active truncated form of p35, amino acids 108-307 were PCR-amplified from human fetal brain cDNA (Clontech QUICK-Clone cDNA) using the Advantage 2 PCR system (Clontech). The PCR product was subcloned into the baculoviral transfer vector pFBGSTP (an engineered derivative of the baculoviral transfer vector pFASTBAC1). The final baculoviral construct encodes for base pairs 419-1021 of GenBank Accession #NM_003885, with an amino-terminal GST tag. The expressed GST-p25 is 444 amino acids long with a predicted MW of 50.3 kDa.
The CDK5/GST-p25 complex was generated by coexpression. Sf21 cells were cultured in TNM-FHS media at a density of 1.5×10^6 cells/mL and infected with each recombinant virus at MOI values of 5 (for CDK5) and 10 (for GST-p25). The cells were harvested 40 h after infection. For purification, the 100,000×g supernatant solution was used. Expression was confirmed by running samples on SDS-PAGE, followed by immunoblot analysis utilizing antibodies against CDK5 (anti-CDK5 (268-283); Calbiochem #219449) and p35 (Santa Cruz #sc820). The CDK5/GST-p25 complex was purified by glutathione affinity chromatography.
Compounds were tested for their ability to inhibit the kinase activity of recombinant baculoviral CDK5/GST-p25 using an enzyme-linked immunosorbent assay (ELISA) with time-resolved fluorescence (TRF) readout. Briefly, each 384-well FluoroNunc Maxisorp plate (Cat # 460372) plate was coated with 50 μl/well of 50 μg/ml substrate solution (recombinant GST-Rb(773-928)) in Tris-buffered saline (TBS). The CDK5/GST-p25 assay mixture (total volume=50 μl/well) consisting of 20 mM HEPES (pH 7.2), 10 μM ATP, 10 mM MgCl2, 5 mM EGTA, 25 mM β-glycerophosphate, 0.05% BSA, 2.5% DMSO, and various concentrations of test compound were then added to the assay plate. Enzyme (2 ng/ml CDK5/GST-p25) was added and the reaction was allowed to proceed at 37° C. for 20 minutes. Detection of the phosphorylated product was performed by adding 50 μl/well of phospho-Rb (Ser-780) antibody (Cell Signaling # 9307) diluted 1:10,000 in antibody dilution buffer (0.1% BSA in TBST). After 1-hour incubation at 37° C., 50 μl/well of Eu-Nl labelled anti-rabbit antibody (Wallac # AD0105; 1:50,000 in antibody dilution buffer) was added. Incubation at 37° C. then proceeded for 1 hour, followed by addition of 50 μl enhancement solution (Wallac #1244-105). The plate was gently agitated and after a few minutes, the fluorescence of the resulting solution was measured using a Multilabel Reader (Victor2 Model # 1420-018 or Envision Model # 2100). Inhibition data were analyzed using ActivityBase and IC50 curves were generated using XLFit 3.0.5.

His6-GSK-3β = molecular target: T2, His6-GSK-3β (Homo sapiens, UniProt P49841); assay: Inhibition of His6-GSK-3β kinase activity (ELISA-based format, time-resolved fluorescence readout); type: biochemical; details: read-out: GSK3β IC50
T2 construct: made in house; host or cells: Sf21 insect cells (baculovirus)
T2 sequence (P49841 2-419): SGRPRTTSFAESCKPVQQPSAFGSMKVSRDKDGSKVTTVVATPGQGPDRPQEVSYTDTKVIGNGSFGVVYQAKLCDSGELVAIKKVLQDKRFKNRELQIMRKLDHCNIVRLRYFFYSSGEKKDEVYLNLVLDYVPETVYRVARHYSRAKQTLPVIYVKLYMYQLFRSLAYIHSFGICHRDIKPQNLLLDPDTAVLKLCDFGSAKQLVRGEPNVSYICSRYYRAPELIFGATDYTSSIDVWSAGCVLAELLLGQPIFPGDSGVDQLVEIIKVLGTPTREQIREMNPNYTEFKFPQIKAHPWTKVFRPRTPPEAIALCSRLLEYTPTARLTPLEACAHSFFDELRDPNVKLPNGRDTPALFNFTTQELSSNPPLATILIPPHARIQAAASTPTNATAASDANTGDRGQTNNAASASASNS
Excerpt: Full-length GSK-3β was amplified from a sequence-verified I.M.A.G.E. EST acquired from Research Genetics (Invitrogen, Clone ID# CSODB003YJ02). The final sequence-verified cDNA contained the coding region for a NH2-terminal tag, which encoded for 6 histidines and then eight vector-encoded amino acids prior to the start of GSK3β, which contained by # 43-1342 of Genbank Accession # NM_002093, encoding amino acids #2-419. The predicted molecular weight of the tagged, 435 amino acid, full-length protein is 48.5 kDa. The major structural element of this protein is the kinase domain, which is from amino acids #56-340. Recombinant baculoviral DNA was prepared by transposition in E. coli (BAC-TO-BAC system: Invitrogen) and the virus generated and amplified in Sf21 insect cells. A suspension culture of Sf21 cells was infected at an MOI of 0.7 and cell density of 1.5×10^6 cells/mL in Excell 420 serum-free media (JRH BioScience) and harvested 65 h after infection. The 100,000×g supernatant solution was used for purification. Expression was confirmed by running samples on SDS-PAGE, followed by immunoblot analysis utilizing both a Penta-HIS antibody (Qiagen #34660) and a GSK-3α/GSK-3β antibody (Calbiochem #368662, data not shown). The His6-tagged protein was purified to in one step by Ni-NTA affinity chromatography.
Inhibitory effects of compounds on baculoviral GSK-3β kinase activity were evaluated using an ELISA-based format in a 384-well FluoroNunc Maxisorp plate (Cat # 460372) with a time-resolved fluorescence readout. Briefly, each plate was coated with 50 μl/well of 20 μg/ml substrate solution (recombinant GST-Rb) in Tris-buffered saline (TBS). The GSK-3β assay mixture (total volume=50 μl/well) consisting of 50 mM HEPES (pH 7.2), 20 μM ATP, 10 mM MgCl2, 5 mM EGTA, 25 mM β-glycerophosphate, 0.05% BSA, 2.5% DMSO, and various concentrations of test compound were then added to the assay plate. Enzyme (200 ng/ml His6-GSK-3β) was then added and the reaction was allowed to proceed at 37° C. for 30 minutes. Detection of the phosphorylated product was performed by adding 50 μl/well of phospho-Rb (Ser-780) antibody (Cell Signaling # 9307) diluted 1:10,000 in antibody dilution buffer (0.1% BSA in TBST). After 1-hour incubation at 37° C., 50 μl/well of Eu-N1 labelled anti-rabbit antibody (Wallac # AD0105; 1:50,000 in antibody dilution buffer) was added. Incubation at 37° C. then proceeded for 1 hour, followed by addition of 50 μl enhancement solution (Wallac #1244-105). The plate was gently agitated and after a few minutes, the fluorescence of the resulting solution was measured using a Multilabel Reader (Victor2 Model # 1420-018 or Envision Model 2100). Inhibition data were analyzed using ActivityBase and IC50 curves were generated using XLFit 3.0.5.

Compound	pIC50 (CDK5/GST-p25; class symbols)	pIC50 (His6-GSK-3β; numeric bounds)	pIC50 (His6-GSK-3β; class symbols)	CDK5 % @10 μM (CDK5/GST-p25; @10 μM) [% @10 μM]	pIC50 (CDK5/GST-p25; numeric bounds)
CC(C)Cn1cc2c(C3C(=O)Nc4ccc(Cl)cc43)nc(Cl)nc2n1 (stereo not shown) [Example 273, 5-Chloro-3-(6-chloro-2-isobutyl-2H-pyrazolo [3,4-d]pyrimidin-4-yl)-1,3-dihydro-indol-2-one]	< 5.00	< 5.52	–	–	–
N#Cc1ccc2c(c1)C(c1nc(N3CCCC3)nc3nn(C4CCCC4)cc13)C(=O)N2 (stereo not shown) [Example 132, 3-(2-cyclopentyl-6-pyrrolidin-1-yl-2H-pyrazolo [3,4-d]pyrimidin-4-yl)-2-oxo-2,3-dihydro-1H-indole-5-carbonitrile]	< 5.00	–	> 6.52	–	–
N#Cc1ccc2c(c1)C(c1nc(Cl)nc3nn(C4CCCC4)cc13)C(=O)N2 (stereo not shown) [Example 113, 3-(6-Chloro-2-cyclopentyl-2H-pyrazolo[3,4-d]pyrimidin-4-yl)-2-oxo-2,3-dihydro-1H-indole-5-carbonitrile]	< 5.00	–	> 6.52	–	–
COCCNc1nc(C2C(=O)Nc3ccc(C#N)cc32)c2cn(C3CCCC3)nc2n1 (stereo not shown) [Example 174, 3-[2-Cyclopentyl-6-(2-methoxy-ethylamino)-2H-pyrazolo [3,4-d]pyrimidin-4-yl]-2-oxo-2,3-dihydro-1H-indole-5-carbonitrile]	> 6.52	–	> 6.52	–	–
O=C1Nc2ccc(F)cc2C1c1nc(Cl)nc2c1CCC2 (stereo not shown) [Example 315, 3-(2-Chloro-6,7-dihydro-5H-cyclopentapyrimidin-4-yl)-5-fluoro-1,3-dihydro-indol-2-one]	< 5.00	–	< 5.00	–	–
CN(C)CCN1CCN(c2nc(C3C(=O)Nc4ccc(Cl)cc43)c3cn(C4CCCC4)nc3n2)CC1 (stereo not shown) [Example 144, 5-Chloro-3-{2-cyclopentyl-6-[4-(2-dimethylamino-ethyl)-piperazin-1-yl]-2H-pyrazolo[3,4-d]pyrimidin-4-yl}-1,3-dihydro-indol-2-one]	< 5.00	–	> 6.52	–	–
CCCn1cc2c(C3C(=O)Nc4ccc(Br)cc43)nc(NC[C@H](O)CO)nc2n1 (stereo partly drawn) [Example 364, 5-Bromo-3-[6-((S)-2,3-dihydroxy-propylamino)-2-propyl-2H-pyrazolo [3,4-d]pyrimidin-4-yl]-1,3-dihydro-indol-2-one]	> 6.52	–	> 6.52	–	–
CCOCCn1cc2c(C3C(=O)Nc4ccc(Cl)cc43)nc(NCCc3cccnc3)nc2n1 (stereo not shown) [Example 212, 5-Chloro-3-[2-(2-ethoxy-ethyl)-6-(2-pyridin-3-yl-ethylamino)-2H-pyrazolo [3,4-d]pyrimidin-4-yl]-1,3-dihydro-indol-2-one]	> 6.52	–	> 6.52	–	–
CCCn1cc2c(C3C(=O)Nc4ccc(C)cc43)nc(NCCN(C)C)nc2n1 (stereo not shown) [Example 309, 3-[6-(2-Dimethylamino-ethylamino)-2-propyl-2H-pyrazolo[3,4-d]pyrimidin-4-yl]-5-methyl-1,3-dihydro-indol-2-one]	5.52 to 6.52	–	5.52 to 6.52	–	–
O=C1Nc2ccc(Br)cc2C1c1nc(NCCc2cccnc2)nc2nn(C3CCCC3)cc12 (stereo not shown) [Example 181, 5-Bromo-3-[2-cyclopentyl-6-(2-pyridin-3-yl-ethylamino)-2H-pyrazolo [3,4-d]pyrimidin-4-yl]-1,3-dihydro-1H-indol-2-one]	–	–	> 6.52	70	–
N#Cc1ccc2c(c1)C(c1nc(N3CCN(CCN4CCCC4)CC3)nc3nn(C4CCCC4)cc13)C(=O)N2 (stereo not shown) [Example 127, 3-{2-cyclopentyl-6-[4-(2-pyrrolidin-1-yl-ethyl)-piperazin-1-yl]-2H-pyrazolo[3,4-d]pyrimidin-4-yl}-2-oxo-2,3-dihydro-1H-indole-5-carbonitrile]	< 5.00	–	> 6.52	–	–
O=C1Nc2ccc(Br)cc2C1c1nc(NCc2ccncc2)nc2nn(C3CCCC3)cc12 (stereo not shown) [Example 180, 5-Bromo-3-{2-cyclopentyl-6-[(pyridin-4-ylmethyl)-amino]-2H-pyrazolo[3,4-d]pyrimidin-4-yl}-1,3-dihydro-1H-indol-2-one]	> 6.52	–	> 6.52	–	–
N#Cc1ccc2c(c1)C(c1nc(N3CCNCC3)nc3c1CCC3)C(=O)N2 (stereo not shown) [Example 354, 2-Oxo-3-(2-piperazin-1-yl-6,7-dihydro-5H-cyclopentapyrimidin-4-yl)-2,3-dihydro-1H-indole-5-carbonitrile]	> 6.52	–	5.52 to 6.52	–	–
O=C1Nc2ccc(Cl)cc2C1c1nc(NCc2ccncc2)nc2c1CCC2 (stereo not shown) [Example 326, 5-Chloro-3-{2-[(pyridin-4-ylmethyl)-amino]-6,7-dihydro-5H-cyclopentapyrimidin-4-yl}-1,3-dihydro-indol-2-one]	< 5.00	–	5.52 to 6.52	–	–
O=C1Nc2ccc(F)cc2C1c1nc(NCc2cccnc2)nc2c1CCC2 (stereo not shown) [Example 321, 5-Fluoro-3-{2-[(pyridin-3-ylmethyl)-amino]-6,7-dihydro-5H-cyclopentapyrimidin-4-yl}-1,3-dihydro-indol-2-one]	–	< 5.52	–	–	< 5.52
N#Cc1ccc2c(c1)C(c1nc(NCc3ccncc3)nc3nn(C4CCCC4)cc13)C(=O)N2 (stereo not shown) [Example 176, 3-{2-Cyclopentyl-6-[(pyridin-4-ylmethyl)-amino]-2H-pyrazolo[3,4-d]pyrimidin-4-yl}-2-oxo-2,3-dihydro-1H-indole-5-carbonitrile]	> 6.52	–	> 6.52	–	–
C=CCNc1nc(C2C(=O)Nc3ccc(Br)cc32)c2cn(CCC)nc2n1 (stereo not shown) [Example 193, 3-(6-Allylamino-2-propyl-2H-pyrazolo[3,4-d]pyrimidin-4-yl)-5-bromo-1,3-dihydro-indol-2-one]	> 6.52	–	> 6.52	–	–
